Test results reported in patent US20250255845A1, “USE OF INTERLEUKIN (IL)-17A INHIBITOR IN PREPARATION OF MEDICAMENT FOR TREATING INFLAMMATORY DISEASE” (Xiangnan University, priority 2024, published 2025).

Tests used:
Type in all cases: cell-based, mouse
p-STAT3 (Ser 727) = test: Western blot of p-STAT3 (Ser 727) in LPS-induced RAW264.7 cells
Method: (§1) RAW264.7 cell culture: mouse mononuclear macrophages (RAW264.7, ATCC) are cultured in a complete medium containing 10% fetal bovine serum (FBS), 1% double antibodies (penicillin and streptomycin), and 89% DMEM at 37° C. and 5% CO2. In this experiment, RAW264.7 cells from passages 3 to 8 are used for related test.
(§2) LPS (100 ng/ml) is added for stimulation, with or without Tan, and the cell supernatant is collected to detect the contents of NO, IL-23, IL-17A, TNF-α, and IL-6 in the cell supernatant. The cell lysate is collected and the protein expressions (STAT3, p-STAT3 (Ser727), and p-STAT3 (Tyr705)) are detected by Western blot. Total cell RNA is extracted and real-time fluorescence quantitative polymerase chain reaction (PCR) is conducted to detect the expression levels of IL-23, IL-17A, TNF-α, and IL-6 mRNA.
RAW264.7 cells in the logarithmic growth phase were inoculated in 100 mm culture dishes, and the cell density was adjusted to 1.6×10^6 cells/dish. After cultured for 24 h, different concentrations (5, 10, 20, 40 μM) of Tan were added to allow pretreatment for 2 h, and LPS (100 ng/ml) was added to allow incubation for 24 h. The original medium was removed, and the cells were washed 2 times with pre-cooled PBS buffer. Then, protein lysis buffer (300 μL per dish) was added for lysis on ice for 30 min. The supernatant was collected by centrifugation at 4° C., 12,000 rpm for 5 min, and the protein concentration was determined by BCA method. Next, 60 μg of total protein sample was loaded, separated by 10% Sodium Dodecyl Sulfate Polyacrylamide Gel Electrophoresis (SDS-PAGE) gel, and transferred to Polyvinylidene Fluoride (PVDF) membrane by electrophoresis. The membrane was blocked with 5% skim milk at room temperature for 1 h, and 3 mL of GAPDH, STAT3, p-STAT3 (Ser727), and p-STAT3 (Tyr705) antibodies were added and incubated overnight at 4°° C. […] Enhanced Chemiluminescence (ECL) color development was used for detection, and protein band quantification was performed using Image J software.

STAT3 = test: Western blot of STAT3 in LPS-induced RAW264.7 cells; settings: 5-40 μM, among treatment groups; P>0.05
Method: as §1, §2
(§3) RAW264.7 cells in the logarithmic growth phase were inoculated in 100 mm culture dishes, and the cell density was adjusted to 1.6×10^6 cells/dish. […] The supernatant was collected by centrifugation at 4° C., 12,000 rpm for 5 min, and the protein concentration was determined by BCA method. […] Enhanced Chemiluminescence (ECL) color development was used for detection, and protein band quantification was performed using Image J software.

p-STAT3 (Tyr 705) = test: Western blot of p-STAT3 (Tyr 705) in LPS-induced RAW264.7 cells
Method: as §1, §2, §3

TNF-α mRNA = test: Real-time fluorescence quantitative PCR, LPS-induced TNF-α mRNA in RAW264.7 cells
Method: as §1, §2
RAW264.7 cells were inoculated into 6-well plate and the cell density was adjusted to 5.0×10^6 cells/well. […] The fluorescence intensity of each sample was detected according to the instructions of the real-time fluorescence quantitative PCR kit and specific primers (Table 1) (cycle conditions: enzyme activation 95° C. for 3 min, 1 cycle; denaturation 95° C. for 15 s, annealing/extension 60° C. for 1 min, 40 cycles). The mRNA expression level of each group was normalized with the GAPDH expression level, and the relative expression of mRNA was calculated using the 2^−ΔΔCt method.

IL-6 = test: ELISA of LPS-induced IL-6 secretion in RAW264.7 cells
Method: as §1, §2
RAW264.7 cells in the logarithmic growth phase were inoculated into a 6-well plate and the cell density was adjusted to 5.0×10^5 cells/well. After culturing for 24 h, the cells were stably adhered to the plate. The original medium was removed and different concentrations (5, 10, 20, 40 μM) of Tan were added to allow pretreatment for 1 h. […] The OD450 nm value of the cell supernatant was detected according to the instructions of the TNF-α and IL-6 ELISA kits, and the content of pro-inflammatory factors (TNF-α and IL-6) in the cell supernatant was calculated.

IL-17A mRNA = test: Real-time fluorescence quantitative PCR, LPS-induced IL-17A mRNA in RAW264.7 cells
Method: as §1, §2
RAW264.7 cells were inoculated into 6-well plate and the cell density was adjusted to 5.0×10^6 cells/well. After cultured for 24 h, the cells were stably adhered to the wall. The original medium was removed and different concentrations (5, 10, 20, 40 μM) of Tan were added to allow pretreatment for 1 h. LPS (100 ng/mL) was added and continued to be incubated for 24 h. The commercial TRlcom lysis buffer provided by Jianshi Biotech was added to extract total RNA from cells using the centrifugal column method and immediately reverse transcribed into c-DNA. The fluorescence intensity of each sample was detected according to the instructions of the real-time fluorescence quantitative PCR kit and specific primers (Table 1) (cycle conditions: enzyme activation 95° C. for 3 min, 1 cycle; denaturation 95° C. for 15 s, annealing/extension 60° C. for 1 min, 40 cycles). The mRNA expression level of each group was normalized with the GAPDH expression level, and the relative expression of mRNA was calculated using the 2^−ΔΔCt method.

[1] = 5-40 μM, vs LPS group, P<0.001, dose-dependent
[2] = 5-40 μM, 24 h, vs LPS, P<0.001, dose-dependent

COc1ccc(-c2cc(=O)c3c(OC)c(OC)c(OC)c(OC)c3o2)cc1 [Tan, tangeretin]
suppression of p-STAT3 (Ser 727) relative to p-STAT3 (Tyr 705) (p-STAT3 (Ser 727)): more pronounced suppression
suppression of STAT3 phosphorylation (Ser 727) compared with positive control Clo (p-STAT3 (Ser 727); 40 μM): comparable efficacy to the positive control
expression of p-STAT3 (Ser 727) protein (p-STAT3 (Ser 727); [1]): inhibited
STAT3 protein expression (STAT3): no statistically significant change
suppression of STAT3 phosphorylation (Tyr 705) compared with positive control Clo (p-STAT3 (Tyr 705); 40 μM): comparable efficacy to the positive control
expression of p-STAT3 (Tyr 705) protein (p-STAT3 (Tyr 705); [1]): inhibited
inhibitory effect on TNF-α mRNA compared with positive control Clo (TNF-α mRNA; 40 μM): comparable to that of the positive control Clo
relative expression level of TNF-α mRNA (TNF-α mRNA; [2]): significantly decreased
inhibitory effect on IL-6 secretion compared with positive control Clo (IL-6; 40 μM): comparable to that of the positive control
IL-6 level in the cell supernatant (IL-6; 5-40 μM, 24 h, vs LPS group, P<0.001, dose-dependent): significantly decreased
inhibitory effect on IL-17A (FIG. 5B) (IL-17A mRNA): strong inhibitory effect
inhibitory effect on IL-17A mRNA compared with positive control Clo (IL-17A mRNA; 40 μM): comparable to that of the positive control Clo
relative expression level of IL-17A mRNA (IL-17A mRNA; [2]): significantly decreased
